For orientation: Km means the concentration of substrate that gives half-maximal velocity.

The values that follow come from PMC12798769, “GArNet: A Genetic Algorithm-Based Protein Redesign Approach to Optimize Mutation Combinations Informed by Network Theory” (Journal of Chemical Information and Modeling, 2025).

Experiment [1] deals with T1, CnTDH (Cupriavidus necator, UniProt Q0K312, N14C/R31N/A62E/A160N/H177Y/A291K/A310K, form not given).
T1 construct: gene H16_B0820; recombinant in E. coli BL21(DE3), His-tag (HisTrap; pET15b NdeI/BamHI for the designed variants), size-exclusion purified
The experiment can be described thus: NADH formation at […] nm, Michaelis-Menten fit. The class given is biochemical. Conditions: 0.1 M Gly-KOH pH 10.0; 2.5 mM NAD+; 0.0-40 mM L-threonine.

The target in experiment [2] is T2, CnTDH (Cupriavidus necator, UniProt Q0K312, V11I/R67K/G69K/G263D/Q265E/D282Q, form not given).
T2 construct: gene H16_B0820; recombinant in E. coli BL21(DE3), His-tag (HisTrap; pET15b NdeI/BamHI for the designed variants), size-exclusion purified
The experiment can be described thus: NADH formation at […] nm, Michaelis-Menten fit. Conditions: 0.1 M Gly-KOH pH 10.0; 2.5 mM NAD+; 0.0-40 mM L-threonine. The class given is biochemical.

For the compound `C[C@@H](O)[C@H](N)C(=O)O` [L-threonine], the Km on CnTDH [1] turned out to be 17.4 ± 1.9 mM; on CnTDH [2], 11.6 ± 1.4 mM.
